Patent US8440893B2, “Therapeutic agent for rheumatoid arthritis” (St. Marianna University School of Medicine, priority 2006, dated 2013)

Assays:
macrophages = assay: Inflammatory cytokine production (ELISA), macrophages; type: cell-based, human; settings: for Concentration of cytokines produced by macrophage, IL-1β: medium only 8.1; for Concentration of cytokines produced by macrophage, TNF-α: medium only 122
Method: After obtaining informed consent, 50 mL of blood was collected from healthy individuals, and 1% heparin-added blood was acquired. Centrifuge tubes in which this blood was layered on top of a lymphocyte separation liquid were centrifuged at 1500 rpm for 30 minutes to isolate lymphocytes and macrophages individually. The cells were cultured using an RPMI medium supplemented with inactivated fetal bovine serum (FBS, manufactured by TRACE) at 10% of the medium volume, and also with 2 mM L-glutamine, 25 mM HEPES, and 100 units/mL of penicillin and streptomycin, in a CO2 incubator set at 5% CO2+95% air (normoxic conditions) at 37° C. under saturated humidity.
Effects of C60 on the production of inflammatory cytokines in each type of cell were analyzed using the enzyme-linked immunosorbent assay method (ELISA).
Each type of cell that was isolated and cultured to subconfluency by the above method was seeded into a 24-well culture plate at 1×10^5 cells/well. After culturing for 12 hours, the cells were washed with PBS, the medium was exchanged to fresh DMEM containing 10% FBS, and tumor necrosis factor TNF-α was added. The concentration of C60 treatment was 0.1, 1.0, or 10.0 μM, and the concentration of TNF-α treatment was 10.0 ng/mL. Each type of cell was cultured with C60 for 24 hours in the presence or absence of TNF-α, and then the culture solution was collected.
The concentrations of inflammatory cytokines TNF-α and interleukin (IL)-1β in the culture supernatant were determined using a ELISA kit, which is a standard technique currently known in the art. The ELISA was performed by the following standard method: the diluted culture supernatant sample was added into a sensitized plate at 100 μl per well, and the plate was left still for one hour at room temperature (primary reaction). After the primary reaction, the wells were sufficiently washed with PBS using a wash bottle four times or more. Horseradish peroxidase (HRP)-labeled goat anti-rabbit IgG (H+L) antibodies that have been diluted 3,000-folds with 0.1% Tween20-PBS were dispensed into the respective wells at 100 μl each, and the plate was left still for one hour at room temperature (secondary reaction). After the secondary reaction, the wells were washed with PBS in the same manner, and then 0.8 mM TMB (Tetramethylbenzidine) solution was added thereto at 100 μl per well, to effect color development at 30° C. for five to 20 minutes (color reaction). 100 μl of 1.5 N H3PO4 was added to each well to stop the color reaction, and the absorbance at 450 nm was measured using a microtiter plate reader. According to the instructions provided by the manufacturer, the measured concentrations were calibrated using a lyophilized control reagent.
(§1) SOD (final concentration: 10 or 100 μM) or vitamin C (final concentration: 10 or 100 μM) was added to DMEM medium. The level of inflammatory cytokines produced by macrophages and the osteoclast differentiation ability were measured by the methods of Examples 1-3 and 2-2 described above, respectively, and compared to the results obtained with C60 (10 μM) (Table 1).

[1] = test system: osteoclast precursor cells; assay: Osteoclast differentiation (TRAP staining of TRAP-positive multinucleated giant cells); type: cell-based; settings: medium only 78
Method: An osteoclast precursor cell culture kit (Cell Garage Co. Ltd.) was used to observe the effect of C60 on the differentiation of osteoclast precursor cells to mature osteoclasts.
Using the above-mentioned osteoclast precursor cell culture kit, osteoclast precursor cells were cultured on a chamber slide in the presence of osteoclast differentiation-inducing factors. C60 was added to the medium at a final concentration of 0.1, 1.0, or 10.0 μM, and the cells were cultured for seven days. The medium, including various additional factors, was changed to a fresh one every three days. On the seventh day, TRAP-positive multinucleated giant cells, which serve as an index of osteoclast differentiation, were observed by TRAP staining (Cell Garage AK04 Lot: FEM).
The TRAP staining method was carried out as follows. First, after confirming the formation of osteoclasts, the culture solution was removed, and the cells were washed with PBS at 100 μL/well. Next, a fixative solution (kit) was added at 50 μL/well and reacted for five minutes at room temperature. Then, the fixative solution was removed, and the cells were subjected to three washes using 250 μL/well of deionized distilled water (DDW). One vial of chromogenic substrate was dissolved by adding 5 mL of buffer to prepare a color developing solution. The above color developing solution was added at 50 μL/well and then incubated at 37° C. for 20 minutes. After confirming the color development, the color developing solution was removed, and the reaction was stopped using 250 μL/well of DDW. After washing with DDW three times in total, the wells were removed, and the slide was mounted with a water-soluble mounting medium (NUNK 178599 16-well chamber slides were used).
as §1

[2] = Antioxidative ability (kit utilizing the redox reaction of copper); type: biochemical
Method: Various concentrations of C60, SOD, and vitamin C solutions were prepared (solvent: DEME medium, SOD (10, and 100 μM), C60 (1, 10, and 100 μM), vitamin C (100 μM)), and the antioxidative ability of each was determined using a kit for measuring antioxidative ability (OXIS Health Product, Oregon, USA) which utilizes the redox reaction of copper.

Compound	Concentration of cytokines produced by macrophage, IL-1β (macrophages; added antioxidant 10 μM) [ng/ml/1 × 10^5 cells]	Concentration of cytokines produced by macrophage, TNF-α (macrophages; added antioxidant 10 μM) [ng/ml/1 × 10^5 cells]	Concentration of cytokines produced by macrophage, IL-1β (macrophages; added antioxidant 100 μM) [ng/ml/1 × 10^5 cells]	Concentration of cytokines produced by macrophage, TNF-α (macrophages; added antioxidant 100 μM) [ng/ml/1 × 10^5 cells]	Osteoclast differentiation ([1]; added antioxidant 10 μM)	Osteoclast differentiation ([1]; added antioxidant 100 μM)	ratio to the antioxidative ability of vitamin C (100 μM) ([2]; substance at 10 μM)	ratio to the antioxidative ability of vitamin C (100 μM) ([2]; substance at 100 μM)
O=C1O[C@H]([C@@H](O)CO)C(O)=C1O [Vitamin C, vitamin C]	6.9	116	7.5	115	94 TRAP-positive multinucleated giant cells/well	82 TRAP-positive multinucleated giant cells/well		
Superoxide dismutase [SOD]	9.0	130	7.8	106	82 TRAP-positive multinucleated giant cells/well	75 TRAP-positive multinucleated giant cells/well	approximately two-fold	approximately 8 fold
